Biological target: T1, Tyrosine-protein phosphatase non-receptor type 11 (Homo sapiens) (UniProt Q06124)
T1 sequence (whole entry): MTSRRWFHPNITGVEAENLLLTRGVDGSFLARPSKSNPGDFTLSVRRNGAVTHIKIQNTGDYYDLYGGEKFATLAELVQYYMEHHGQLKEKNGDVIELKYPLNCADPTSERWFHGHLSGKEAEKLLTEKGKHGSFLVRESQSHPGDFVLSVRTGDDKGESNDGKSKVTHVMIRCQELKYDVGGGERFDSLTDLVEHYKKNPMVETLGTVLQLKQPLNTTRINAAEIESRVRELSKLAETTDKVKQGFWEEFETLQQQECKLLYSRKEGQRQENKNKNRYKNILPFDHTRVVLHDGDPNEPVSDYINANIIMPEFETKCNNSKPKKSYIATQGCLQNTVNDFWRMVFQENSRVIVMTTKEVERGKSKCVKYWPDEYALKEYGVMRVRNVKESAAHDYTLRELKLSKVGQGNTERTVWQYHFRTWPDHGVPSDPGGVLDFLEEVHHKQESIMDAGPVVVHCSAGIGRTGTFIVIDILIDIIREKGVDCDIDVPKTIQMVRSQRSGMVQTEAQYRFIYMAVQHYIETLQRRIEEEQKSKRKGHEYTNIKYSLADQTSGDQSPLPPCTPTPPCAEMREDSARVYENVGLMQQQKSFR
Details: filed as negative allosteric modulator
Description: Allosteric inhibition of recombinant human SHP2 assessed as change in melting temperature by SYPRO orange dye based thermal shift assay

SMILES | ΔTm
CN(CCN)c1cnc(-c2cccc(Cl)c2Cl)c(N)n1 | 1.06 °C
NCC1CCN(c2cnc(-c3cccc(Cl)c3Cl)c(N)n2)CC1 | 3.67 °C
Nc1nc(N2CC[C@H](N)C2)cnc1-c1cccc(Cl)c1Cl | 1.92 °C
CC1(N)CCN(c2cnc(-c3cccc(F)c3F)c(N)n2)CC1 | 0.52 °C
Nc1nc(N2CCC(N)CC2)cnc1-c1cccc(Cl)c1Cl | 1.72 °C
CC1(N)CCN(c2cnc(SC3CCCCC3)c(N)n2)CC1 | 0.88 °C
Nc1nc(N2CCC(O)CC2)cnc1-c1cccc(Cl)c1Cl | 0.36 °C
CN1CCN(c2cnc(-c3cccc(Cl)c3Cl)c(N)n2)CC1 | 3.2 °C
Nc1nc(N2CCNCC2)cnc1-c1cccc(Cl)c1Cl | 3.01 °C
CNC1CCN(c2cnc(-c3cccc(Cl)c3Cl)c(N)n2)CC1 | 3.06 °C
CC1(CN)CCN(c2cnc(Sc3cccc(Cl)c3Cl)c(N)n2)CC1 | 7.01 °C
CC1(O)CCN(c2cnc(-c3cccc(Cl)c3Cl)c(N)n2)CC1 | 0.435 °C
NCCC1CCN(c2cnc(-c3cccc(Cl)c3Cl)c(N)n2)CC1 | 2.31 °C
NCC1CCN(c2cnc(Sc3cccc(Cl)c3Cl)c(N)n2)CC1 | 4.93 °C

Now from value to compound:

ΔTm | SMILES
4.37 °C | CC1(N)CCN(c2cnc(-c3cccc(Cl)c3Cl)c(N)n2)CC1
1.72 °C | CC1(N)CCN(c2cnc(Sc3ccccc3)c(N)n2)CC1
0.43 °C | CC1(N)CCN(c2cnc(Sc3ccc(Cl)cc3)c(N)n2)CC1
0.42 °C | Cc1ccc(-c2ncc(N3CCC(C)(N)CC3)nc2N)cc1
4.47 °C | CC1(N)CCN(c2cnc(Sc3ccccc3Br)c(N)n2)CC1
2.88 °C | CC1(N)CCN(c2cnc(Sc3ccccc3F)c(N)n2)CC1
3.79 °C | COc1ccccc1Sc1ncc(N2CCC(C)(N)CC2)nc1N
0.38 °C | CC1(N)CCN(c2cnc(SCc3ccccc3)c(N)n2)CC1
2.23 °C | CC1(N)CCN(c2cnc(Sc3ccc4ccccc4c3)c(N)n2)CC1
1.7 °C | CC1(N)CCN(c2cnc(Sc3cccc(Cl)c3)c(N)n2)CC1
0.44 °C | CC1(N)CCN(c2cnc(SCc3ccccc3Cl)c(N)n2)CC1
6.24 °C | CC1(N)CCN(c2cnc(Sc3cccc(Cl)c3Cl)c(N)n2)CC1
1.75 °C | Cc1ccccc1Sc1ncc(N2CCC(C)(N)CC2)nc1N
4.13 °C | CC1(N)CCN(c2cnc(Sc3ccccc3Cl)c(N)n2)CC1
3.6 °C | CC1(N)CCN(c2cnc(Sc3cccc4ccccc34)c(N)n2)CC1
3.45 °C | CC1(N)CCN(c2cnc(Sc3ccccc3C(F)(F)F)c(N)n2)CC1
0.275 °C | CC1(N)CCN(c2cnc(-c3ccc(C#N)cc3)c(N)n2)CC1
